{"source": "patent US20260144797A1", "about": "“METHODS OF REDUCING OR PREVENTING METASTASES” (FOGHORN THERAPEUTICS INC., priority 2022, published 2026)", "type_in_all_cases": "in vivo", "key": {"[1]": {"test_system": "uveal melanoma (UM) CDX models MP-41 and MP-46", "experiment": "Differential gene expression by RNA-seq in UM CDX models (Example 1)", "conditions": "MP-41 and MP-46 CDX; 0.5-3 mpk QD or BID; 5 days; RNA-seq (FIG. 3)", "protocol": "Uveal melanoma can be classified into Class 1 or Class 2 tumors based on the DecisionDx®-UM gene expression profiling (GEP) test, a widely used prognostic test to predict individual risk of metastasis in patients with uveal melanoma. Class 1 and 2 tumors are associated with low and high risk of metastasis, respectively. Gene expression profiling (GEP) Class 2 (dark blue), GEP Class 1 (light blue), PRAME (green), and BAP1 (orange) expression were measured in three uveal melanoma (UM) CDX models: 92-1, MP-41, and MP-46 (FIG. 2). GEP class 1 and GEP class 2 are defined in FIG. 1.\nDifferential gene expression was measured by RNA-seq in two uveal melanoma (UM) CDX models: MP-41 and MP-46 (FIG. 3). UM CDX model MP-41 was divided into four cohorts—cohort one was treated with 0.5 mpk of Compound A twice a day (BID), cohort two was treated with 1 mpk of Compound A once a day (QD), cohort three was treated with 1 mpk of Compound A twice a day, and cohort 4 was treated with 2 mpk of Compound A once a day. UM CDX model MP-46 was divided into six cohorts —cohort one was treated with 0.5 mpk of Compound A twice a day (BID), cohort two was treated with 1 mpk of Compound A once a day (QD), cohort three was treated with 0.75 mpk of Compound A twice a day, cohort 4 was treated with 1.5 mpk of Compound A once a day, cohort five was treated with 1.5 mpk of Compound A twice a day, and cohort six was treated with 3 mpk of Compound A twice a day. All treatments ended at 5 days, and animals were sacrificed. GEP Class 1 (green) comprises 8 genes that are high in Class 1 (low risk), and GEP Class 2 (blue) comprises 4 genes that are high in Class 2 (higher risk). PRAME (grey) positivity is associated with poor prognosis in several malignancies, including UM."}, "[2]": {"test_system": "uveal melanoma (UM) CDX model MP-41", "experiment": "Differential gene expression by RNA-seq in UM CDX model MP-41 (Example 2)", "conditions": "MP-41 CDX; 0.5-2 mpk QD or BID; 4 or 5 days; RNA-seq (FIG. 4)", "protocol": "Differential gene expression was measured by RNA-seq in uveal melanoma (UM) CDX model: MP-41 (FIG. 4). This CDX model is a BAP1 intact but aggressive uveal melanoma model. UM CDX model MP-41 was divided into four cohorts—cohort one was treated with 0.5 mpk of Compound A twice a day (BID), cohort two was treated with 1 mpk of Compound A once a day (QD), cohort three was treated with 1 mpk of Compound A twice a day, and cohort 4 was treated with 2 mpk of Compound A once a day. All treatments ended at 4 or 5 days, and animals were sacrificed."}, "[3]": {"test_system": "uveal melanoma (UM) CDX models 92-1, MP-41, and MP-46", "experiment": "Differential gene expression by RNA-seq, MITF/SOX10 pathway (Example 3)", "conditions": "92.1 and MP-46: 1.5 mpk QD, 6 days; MP-41: 2 mpk daily, 4 days; RNA-seq (FIG. 5)", "protocol": "Differential gene expression was measured by RNA-seq in three uveal melanoma (UM) CDX models: 92-1, MP-41, and MP-46 (FIG. 5 and FIG. 6). UM CDX models 92.1 and MP-46 were treated with 1.5 mpk of Compound A, daily (QD), for 6 days, and then animals were sacrificed (FIG. 5). UM CDX model MP-41 was treated with 2 mpk of Compound A, daily, for 4 days, and then animals were sacrificed (FIG. 5). Expression of SOX10, MITF (PD markers) and their downstream targets: melanin pathway markers MLANA, PMEL, and TYR were analyzed. Cyclin D1 is a cell proliferation marker, and BRM and BRG1 were analyzed for candidate selection."}, "MP-41 CDX tumor": {"test_system": "MP-41 CDX tumor", "experiment": "Immunohistochemistry of MP-41 CDX tumor slices", "protocol": "Representative MP-41 CDX tumor slices were analyzed after 5 days of treatment with 2 mpk of Compound A (OnTx) or a Vehicle (Veh), administered daily (FIGS. 7A and 7B)."}, "[4]": {"conditions": "MP-41 xenograft studies (FIGS. 7A and 7B)"}}, "data": [{"smiles": "COC[C@@H](NC(=O)c1ccn(S(C)(=O)=O)c1)C(=O)Nc1nc(-c2cccc(N3C[C@@H](C)O[C@@H](C)C3)n2)cs1", "note": "(stereo in doubt) [Compound A, N-(1-((4-(6-(2,6-dimethylmorpholino)pyridin-2-yl)thiazol-2-yl)amino)-3-methoxy-1-oxopropan-2-yl)-1-(methylsulfonyl)-1H-pyrrole-3-carboxamide]", "values": [{"measurement": "DecisionDx-UM Gene Expression Profile (GEP)", "setting": "[1]", "result": "positive shift"}, {"measurement": "PRAME expression", "setting": "[1]", "result": "decrease"}, {"measurement": "higher risk profile Class 2 genes expression", "setting": "[1]", "result": "decrease"}, {"measurement": "BAP1 expression", "setting": "[2]", "result": "subtle upregulation"}, {"measurement": "GDF15 expression", "setting": "[2]", "result": "dose-dependent downregulation"}, {"measurement": "PROS1 expression", "setting": "[2]", "result": "dose-dependent downregulation"}, {"measurement": "MITF expression", "setting": "[3]", "result": "sustained downregulation"}, {"measurement": "SOX10 expression", "setting": "[3]", "result": "sustained downregulation"}, {"measurement": "melanoma-specific downstream targets of MITF and SOX10, expression", "setting": "[3]", "result": "sustained downregulation"}, {"measurement": "proliferation marker Cyclin D1 (IHC)", "setting": "MP-41 CDX tumor; MP-41 CDX, 2 mpk daily, 5 days (FIGS. 7A and 7B)", "result": "decreases with treatment"}, {"measurement": "melanin pathway markers downstream of MITF/SOX10 signaling (IHC)", "setting": "MP-41 CDX tumor; [4]", "result": "Decrease"}, {"measurement": "proliferation markers (IHC)", "setting": "MP-41 CDX tumor; [4]", "result": "Decrease"}]}]}
